Our source for the Ki values is ChEMBL document CHEMBL1126850, “Examination of the D2/5-HT2 affinity ratios of resolved 5,6,7,8,9,10-hexahydro-7,10-iminocyclohept[b]indoles: an enantioselective approach toward the design of potential atypical antipsychotics” (J Med Chem, 1993).

The target of the experiment is Serotonin 2 (5-HT2) receptor (Rattus norvegicus, UniProt P30994+P08909+P14842). Put plainly: In vitro binding affinity towards 5-hydroxytryptamine 2 receptor in rat striatal membranes by [3H]ketanserin displacement. It is filed as cell membranes, Striatum, Membrane.

For `O=C(CCCN1C2CCC1c1c([nH]c3ccc(F)cc13)C2)c1ccc(F)cc1` (mixture of isomers), the Ki worked out at 2.56 nM. As for `O=C(CCCCN1C2CCC1c1c([nH]c3ccc(F)cc13)C2)c1ccc(F)cc1` (mixture of isomers), the figure is 109 nM. As to `O=C(CCCN1C2CCC1c1c([nH]c3ccc(F)cc13)C2)c1ccc(F)cc1` (racemic), the Ki came to 1.96 nM. As for `O=C(CCCN1C2CCC1c1c([nH]c3ccc(F)cc13)C2)c1ccc(F)cc1` (stereo in doubt; (S,R) 8), the inhibition constant (Ki) came to 0.8 nM.

`O=C(CCCCN1C2CCC1c1c([nH]c3ccc(F)cc13)C2)c1ccc(F)cc1` (racemic): the Ki worked out at 2.98 nM. With `O=C(CCCCN1C2CCC1c1c([nH]c3ccc(F)cc13)C2)c1ccc(F)cc1` (stereo in doubt; (S,R)-9), the inhibition constant Ki is given as 1.87 nM.
